Measurements from ChEMBL document CHEMBL3885861, “Open TG-GATES”.

Species on record: Rattus norvegicus
Assay: Open TG-GATES - Regimen: Single
Assay type: toxicity, organism-based, Sprague-Dawley
Set-up: regimen Single, gender Male, age 6 weeks
Conditions: in vivo, po, 75 mg/kg, route gavage, dose level Low; for APTT / Bas / Eos / Fbg / Hb / Ht / Lym / MCH / MCHC / MCV / Mono / Neu / PT / Plat / RBC / Ret / WBC: tissue Blood; for KIDNEY_L / KIDNEY_R / KIDNEY_TOTAL: tissue Kidney; for LIVER: tissue Liver; for A/G / ALP / ALT / AST / BUN / CRE / Ca / Cl / DBIL / GLC / IP / K / LDH / Na / PL / RALB / TBIL / TC / TG / TP / gamma-GTP: tissue Plasma

## CN(C/C=C/C#CC(C)(C)C)Cc1cccc2ccccc12 [TERBINAFINE]
3 h
  TERMINAL_BW: 225.9 g
  APTT: 19.4 s
  Bas: 0.8%
  Eos: 1%
  Fbg: 219 mg/dL
  Hb: 13.2 g/dL
  Ht: 39.1%
  Lym: 82.2%
  MCH: 21.2 pg
  MCHC: 33.8%
  MCV: 62.7 fL
  Mono: 2.2%
  Neu: 14%
  PT: 12 s
  Plat: 116.2 x10_4/uL
  RBC: 625.2 x10_4/ul
  Ret: 7.3%
  WBC: 88.5 x10_2/uL
  KIDNEY_L: 1 g
  KIDNEY_R: 1 g
  KIDNEY_TOTAL: 2 g
  LIVER: 10.4 g
  A/G: 1.6
  ALP: 998 IU/L
  ALT: 38.6 IU/L
  AST: 69 IU/L
  BUN: 11.8 mg/dL
  CRE: 0.4 mg/dL
  Ca: 10.7 mg/dL
  Cl: 102.6 meq/L
  DBIL: 0.088 mg/dL
  GLC: 202.8 mg/dL
  IP: 9.5 mg/dL
  K: 3.8 meq/L
  LDH: 161.4 IU/L
  Na: 141.4 meq/L
  PL: 143.6 mg/dL
  RALB: 3.4 g/dL
  TBIL: 0.1 mg/dL
  TC: 79.4 mg/dL
  TG: 51.2 mg/dL
  TP: 5.5 g/dL
  gamma-GTP: 0.8 IU/L
6 h
  TERMINAL_BW: 221.9 g
  APTT: 19.3 s
  Bas: 0.8%
  Eos: 1%
  Fbg: 224.2 mg/dL
  Hb: 13.5 g/dL
  Ht: 40%
  Lym: 78.8%
  MCH: 21.3 pg
  MCHC: 33.7%
  MCV: 63.1 fL
  Mono: 2.4%
  Neu: 17.2%
  PT: 12.1 s
  Plat: 113 x10_4/uL
  RBC: 634 x10_4/ul
  Ret: 6.9%
  WBC: 114.1 x10_2/uL
  KIDNEY_L: 1 g
  KIDNEY_R: 1 g
  KIDNEY_TOTAL: 2 g
  LIVER: 10.2 g
  A/G: 1.6
  ALP: 872.2 IU/L
  ALT: 34.6 IU/L
  AST: 66 IU/L
  BUN: 10.6 mg/dL
  CRE: 0.4 mg/dL
  Ca: 10.9 mg/dL
  Cl: 102.2 meq/L
  DBIL: 0.086 mg/dL
  GLC: 200 mg/dL
  IP: 9.3 mg/dL
  K: 4 meq/L
  LDH: 147 IU/L
  Na: 140.8 meq/L
  PL: 143.2 mg/dL
  RALB: 3.4 g/dL
  TBIL: 0.1 mg/dL
  TC: 77.6 mg/dL
  TG: 76.6 mg/dL
  TP: 5.5 g/dL
  gamma-GTP: 1 IU/L
9 h
  TERMINAL_BW: 219.9 g
  APTT: 18.1 s
  Bas: 0.8%
  Eos: 1.2%
  Fbg: 215.6 mg/dL
  Hb: 13.2 g/dL
  Ht: 39.5%
  Lym: 77.6%
  MCH: 21.6 pg
  MCHC: 33.6%
  MCV: 64.3 fL
  Mono: 2%
  Neu: 18.4%
  PT: 12.6 s
  Plat: 113.5 x10_4/uL
  RBC: 614.2 x10_4/ul
  Ret: 6.6%
  WBC: 90.4 x10_2/uL
  KIDNEY_L: 1 g
  KIDNEY_R: 1 g
  KIDNEY_TOTAL: 2 g
  LIVER: 8.9 g
  A/G: 1.6
  ALP: 930.2 IU/L
  ALT: 33.2 IU/L
  AST: 71.4 IU/L
  BUN: 10.6 mg/dL
  CRE: 0.3 mg/dL
  Ca: 10.3 mg/dL
  Cl: 103.8 meq/L
  DBIL: 0.062 mg/dL
  GLC: 202.6 mg/dL
  IP: 9.9 mg/dL
  K: 3.8 meq/L
  LDH: 195.4 IU/L
  Na: 141.4 meq/L
  PL: 124 mg/dL
  RALB: 3.3 g/dL
  TBIL: 0.1 mg/dL
  TC: 68.8 mg/dL
  TG: 29.8 mg/dL
  TP: 5.4 g/dL
  gamma-GTP: 1.6 IU/L
24 h
  TERMINAL_BW: 238.9 g
  APTT: 19.4 s
  Bas: 0.8%
  Eos: 1%
  Fbg: 227.2 mg/dL
  Hb: 13.3 g/dL
  Ht: 39.7%
  Lym: 77.2%
  MCH: 21.1 pg
  MCHC: 33.6%
  MCV: 62.9 fL
  Mono: 3%
  Neu: 17.8%
  PT: 12 s
  Plat: 124.5 x10_4/uL
  RBC: 631.4 x10_4/ul
  Ret: 6.6%
  WBC: 82.1 x10_2/uL
  KIDNEY_L: 1.1 g
  KIDNEY_R: 1 g
  KIDNEY_TOTAL: 2.1 g
  LIVER: 11.8 g
  A/G: 1.5
  ALP: 1096 IU/L
  ALT: 42.8 IU/L
  AST: 84.8 IU/L
  BUN: 15.2 mg/dL
  CRE: 0.4 mg/dL
  Ca: 10.8 mg/dL
  Cl: 104.2 meq/L
  DBIL: 0.1 mg/dL
  GLC: 194.2 mg/dL
  IP: 7.7 mg/dL
  K: 4.3 meq/L
  LDH: 207.8 IU/L
  Na: 141 meq/L
  PL: 135.6 mg/dL
  RALB: 3.4 g/dL
  TBIL: 0.2 mg/dL
  TC: 68.6 mg/dL
  TG: 109.2 mg/dL
  TP: 5.6 g/dL
  gamma-GTP: 1.6 IU/L
